Laboratory results: ChEMBL document CHEMBL1201862, “PubChem BioAssay data set” (2004)
Where a name gives a salt, the structure may show the parent alone.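 Results reflect a 48-hour exposure of cells in 96-well plates to compound at five concentrations. At the GI50, growth is halved.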 Activity calls are given as the source filed them. No stated cut-off is given here; in the data, active = GI50 up to about 1.1 µM and inactive = higher.

Experiments:
Test in all cases: growth of human tumour cells (NCI), 48 h
SF-268 = test system: SF-268
MCF7 = test system: MCF7
SNB-78 = test system: SNB-78
A498 = test system: A498
MDA-N = test system: MDA-N
NCI-H460 = test system: NCI-H460
HCT-116 = test system: HCT-116
NCI-H226 = test system: NCI-H226
Hs-578T = test system: Hs-578T
HCT-15 = test system: HCT-15
T47D = test system: T47D
NCI-H522 = test system: NCI-H522
SK-MEL-5 = test system: SK-MEL-5
UACC-257 = test system: UACC-257
LOX IMVI = test system: LOX IMVI
HCC 2998 = test system: HCC 2998
MDA-MB-231 = test system: MDA-MB-231
HT-29 = test system: HT-29
OVCAR-3 = test system: OVCAR-3
SF-295 = test system: SF-295

Compound	GI50 (SF-268)	GI50 (MCF7)	GI50 (SNB-78)	GI50 (A498)	GI50 (MDA-N)	GI50 (NCI-H460)	GI50 (HCT-116)	GI50 (NCI-H226)	GI50 (Hs-578T)	GI50 (HCT-15) [µM]	GI50 (T47D)	GI50 (NCI-H522)	GI50 (SK-MEL-5)	GI50 (UACC-257)	GI50 (LOX IMVI)	GI50 (HCC 2998)	GI50 (MDA-MB-231)	GI50 (HT-29)	GI50 (OVCAR-3)	GI50 (SF-295)
CCC1CN2CCc3cc(OC)c(OC)cc3C2CC1CC1c2cc(OC)c(OC)cc2CCN1C(=O)C(Cc1c[nH]c2ccccc12)NC(=O)OC(C)(C)C (stereo not given)	5.4 µM (inactive)	2.31 µM (inactive)	15.5 µM (inactive)	6.65 µM (inactive)	1.97 µM (inactive)	2.39 µM (inactive)	1.6 µM (inactive)	13.4 µM (inactive)	2.08 µM (inactive)	2.58	1.85 µM (inactive)	2.28 µM (inactive)	1.67 µM (inactive)	2.71 µM (inactive)	1.88 µM (inactive)	2.63 µM (inactive)	2.16 µM (inactive)	2.03 µM (inactive)	3.3 µM (inactive)	3.97 µM (inactive)
N#CC(C#N)SCc1ccccc1	29.4 µM (inactive)	4.55 µM (inactive)	33 µM (inactive)	> 71.4 µM (inactive)	1.63 µM (inactive)	14.7 µM (inactive)	6.55 µM (inactive)	30.1 µM (inactive)	26.5 µM (inactive)	31.1	18.5 µM (inactive)	5.86 µM (inactive)	11.9 µM (inactive)	23.1 µM (inactive)	5.11 µM (inactive)	61.2 µM (inactive)	2.66 µM (inactive)	27.4 µM (inactive)	23.8 µM (inactive)	16.8 µM (inactive)
CC1CC(c2ccc(Cl)c(Cl)c2)=Nc2ccccc2S1 (stereo not given)	> 100 µM (inactive)		> 100 µM (inactive)	> 100 µM (inactive)		> 100 µM (inactive)	> 100 µM (inactive)	> 100 µM (inactive)		> 100		> 100 µM (inactive)	> 100 µM (inactive)	> 100 µM (inactive)	> 100 µM (inactive)	> 100 µM (inactive)		> 100 µM (inactive)	44.5 µM (inactive)	> 100 µM (inactive)
O=C1OC(c2ccccc2)=N/C1=C/NC(Cc1c[nH]c2ccccc12)C(=O)O (stereo not given)	> 100 µM (inactive)		> 100 µM (inactive)	> 100 µM (inactive)		> 100 µM (inactive)	> 100 µM (inactive)	> 100 µM (inactive)		> 100		68.4 µM (inactive)	> 100 µM (inactive)	> 100 µM (inactive)	> 100 µM (inactive)	> 100 µM (inactive)		> 100 µM (inactive)	> 100 µM (inactive)	> 100 µM (inactive)
O=c1[nH]c(=O)n([C@H]2CCCO2)cc1F	986 µM (inactive)	467 µM (inactive)	> 1000 µM (inactive)	501 µM (inactive)	1200 µM (inactive)	146 µM (inactive)	406 µM (inactive)	625 µM (inactive)	3230 µM (inactive)	678	> 465 µM (inactive)	769 µM (inactive)	845 µM (inactive)	951 µM (inactive)	685 µM (inactive)	89.7 µM (inactive)	> 2720 µM (inactive)	649 µM (inactive)	684 µM (inactive)	918 µM (inactive)
Nc1ncn([C@H]2C[C@H](O)[C@@H](CO)O2)c(=O)n1 [DECITABINE]	119 µM (inactive)	74.8 µM (inactive)	373 µM (inactive)	135 µM (inactive)	1.46 µM (inactive)	6.59 µM (inactive)	48.9 µM (inactive)	68.7 µM (inactive)	3.32 µM (inactive)	2.77	10.4 µM (inactive)	36.7 µM (inactive)	74.6 µM (inactive)	34.9 µM (inactive)	99.5 µM (inactive)	105 µM (inactive)	17.8 µM (inactive)	51.3 µM (inactive)	76.6 µM (inactive)	102 µM (inactive)
CNNCc1ccc(C(=O)NC(C)C)cc1 [PROCARBAZINE HYDROCHLORIDE]	> 500 µM (inactive)	> 486 µM (inactive)	> 500 µM (inactive)	> 500 µM (inactive)	> 500 µM (inactive)	> 500 µM (inactive)	> 500 µM (inactive)	> 381 µM (inactive)	> 500 µM (inactive)	> 415	> 500 µM (inactive)	> 500 µM (inactive)	385 µM (inactive)	450 µM (inactive)	> 486 µM (inactive)	> 398 µM (inactive)	> 500 µM (inactive)	> 474 µM (inactive)	> 472 µM (inactive)	> 500 µM (inactive)
